Patent US20130096156A1 (priority 2010, published 2013)
Like-named read-outs stand apart in the source and are kept apart here.

What was measured:
Phytophthora infestans = assay: whole plant or invertebrate; type: in vivo; details: in Solanum lycopersicum, foliar, read-out: inhibit fungal infestation (percent disease control compared to untreated)
Plasmopara viticola = Plasmopara viticola / grape / leaf disc preventative; type: in vivo; details: foliar, grape vine leaf disks, inoculated 1 day after application, assessed 6-8 days after application, read-out: inhibit fungal infestation (percent disease control compared to untreated)
Method: (§1) Leaf disks of various plant species (diameter 14 mm) are cut from plants grown in the greenhouse. The cut leaf disks are placed in multiwell plates (24-well format) onto water agar. Immediately after cutting the leaf disks are sprayed with a test solution.
(§2) Compounds to be tested are prepared as DMSO solutions (max. 10 mg/ml). Just before spraying the solutions are diluted to the appropriate concentrations with 0.025% Tween20. After drying, the leaf disks are inoculated with a spore suspension of the appropriate pathogenic fungus.
(§3) After an incubation time of 3-7 days after inoculation at defined conditions (temp, rH, light, etc.) according to the respective test system, the activity of the test compound is assessed as antifungal activity.
Grape vine leaf disks are placed on water agar in multiwell plates (24-well format) and sprayed with the formulated test compound diluted in water. The leaf disks are inoculated with a spore suspension of the fungus 1 day after application. The inoculated leaf disks are incubated at 19° C. and 80% rh under a light regime of 12 h light/12 h darkness in a climate cabinet and the activity of a compound is assessed as percent disease control compared to untreated when an appropriate level of disease damage appears in untreated check leaf disks (6-8 days after application).

[1] = test system: Blumeria graminis f. sp. tritici (Erysiphe graminis f. sp. tritici); assay: Blumeria graminis f. sp. tritici / wheat / leaf disc preventative (powdery mildew on wheat); type: in vivo; details: foliar, wheat leaf segments cv. Kanzler, inoculated 1 day after application, assessed 6-8 days after application, read-out: inhibit fungal infestation (percent disease control compared to untreated)
Method: as §1, §2, §3
Wheat leaf segments cv. Kanzler are placed on agar in a multiwell plate (24-well format) and sprayed with the formulated test compound diluted in water. The leaf disks are inoculated by shaking powdery mildew infected plants above the test plates 1 day after application. The inoculated leaf disks are incubated at 20° C. and 60% rh under a light regime of 24 h darkness followed by 12 h light/12 h darkness in a climate chamber and the activity of a compound is assessed as percent disease control compared to untreated when an appropriate level of disease damage appears on untreated check leaf segments (6-8 days after application).

[2] = test system: Phaeosphaeria nodorum (Septoria nodorum); assay: Phaeosphaeria nodorum (Septoria nodorum) / wheat / leaf disc preventative (glume blotch); type: in vivo; details: Parastagonospora nodorum, foliar, wheat leaf segments cv. Kanzler, inoculated 2 days after application, assessed 5-7 days after application, read-out: inhibit fungal infestation (percent disease control compared to untreated)
Method: as §1, §2, §3
Wheat leaf segments cv. Kanzler are placed on agar in a multiwell plate (24-well format) and sprayed with the formulated test compound diluted in water. The leaf disks are inoculated with a spore suspension of the fungus 2 days after application. The inoculated test leaf disks are incubated at 20° C. and 75% rh under a light regime of 12 h light/12 h darkness in a climate cabinet and the activity of a compound is assessed as percent disease control compared to untreated when an appropriate level of disease damage appears in untreated check leaf disks (5-7 days after application).

Pythium ultimum = Pythium ultimum / liquid culture (seedling damping off); type: cell-based; details: Globisporangium ultimum, liquid culture in PDB, 24° C., 2-3 days after application, read-out: inhibit fungal infestation (inhibition of growth determined photometrically)
Method: Mycelia fragments or conidia suspensions of a fungus, prepared either freshly from liquid cultures of the fungus or from cryogenic storage, are directly mixed into nutrient broth. DMSO solutions of the test compound (max. 10 mg/ml) is diluted with 0.025% Tween20 by factor 50 and 10 μl of this solution is pipetted into a microtiter plate (96-well format) and the nutrient broth containing the fungal spores/mycelia fragments is then added to give an end concentration of the tested compound. The test plates are incubated at 24° C. and 96% rH in the dark. The inhibition of fungal growth is determined photometrically after 2-6 days and antifungal activity is calculated.
Mycelia fragments and oospores of a newly grown liquid culture of the fungus are directly mixed into nutrient broth (PDB potato dextrose broth). After placing a (DMSO) solution of test compound into a microtiter plate (96-well format), the nutrient broth containing the fungal mycelia/spore mixture is added. The test plates are incubated at 24° C. and the inhibition of growth is determined photometrically 2-3 days after application.

Compound | inhibition at 200 ppm (Phytophthora infestans) [%] | inhibition at 200 ppm (Plasmopara viticola) [%] | inhibition at 200 ppm [1] [%] | inhibition at 200 ppm [2] [%] | inhibition at 200 ppm (Pythium ultimum) [%] | melting point [°C] | inhibition at 200 ppm ([1]; in Triticum aestivum) [%] | inhibition at 200 ppm ([2]; in Triticum aestivum) [%]
CCc1cnc2c(F)cc(OC(SC)C(=O)NC(C)(C)/C=N/OC)cc2c1 (stereo not drawn) [Compound 14, 2-(3-Ethyl-8-fluoro-quinolin-6-yloxy)-N-(2-methoxyimino-1,1-dimethyl-ethyl)-2-methylsulfanyl-acetamide] | ≥ 80 | ≥ 80 | ≥ 80 | ≥ 80 | ≥ 80 | 101 to 103 | – | –
CCc1cnc2c(C)cc(OC(SC)C(=O)NC(C)(C)/C=N/OC)cc2c1 (stereo not drawn) [Compound 16, 2-(3-Ethyl-8-methyl-quinolin-6-yloxy)-N-(2-methoxyimino-1,1-dimethyl-ethyl)-2-methylsulfanyl-acetamide] | ≥ 80 | ≥ 80 | ≥ 80 | ≥ 80 | ≥ 80 | 105 to 106 | – | –
C#CC(C)(C)NC(=O)C(Oc1cc(C)c2ncc(CC)cc2c1)SC (stereo not drawn) [Compound 18, N-(1,1-Dimethyl-prop-2-ynyl)-2-(3-ethyl-8-methyl-quinolin-6-yloxy)-2-methylsulfanyl-acetamide] | ≥ 80 | ≥ 80 | ≥ 80 | ≥ 80 | ≥ 80 | 92 to 93 | – | –
C#CC(C)(C)NC(=O)C(Oc1ccc2ncc(C=C)cc2c1)SC (stereo not drawn) [Compound 33, N-(1,1-Dimethyl-prop-2-ynyl)-2-methylsulfanyl-2-(3-vinyl-quinolin-6-yloxy)-acetamide] | ≥ 80 | ≥ 80 | ≥ 80 | ≥ 80 | ≥ 80 | 142 to 144 | – | –
C=Cc1cnc2ccc(OC(SC)C(=O)NC(C)(C)/C=N/OC)cc2c1 (stereo not drawn) [Compound 34, N-(2-Methoxyimino-1,1-dimethyl-ethyl)-2-methylsulfanyl-2-(3-vinyl-quinolin-6-yloxy)-acetamide] | ≥ 80 | ≥ 80 | ≥ 80 | ≥ 80 | ≥ 80 | 114 to 116 | – | –
C=Cc1cnc2c(C)cc(OC(SC)C(=O)NC(C)(C)/C=N/OC)cc2c1 (stereo not drawn) [Compound 35, N-(2-Methoxyimino-1,1-dimethyl-ethyl)-2-methylsulfanyl-2-(8-methyl-3-vinyl-quinolin-6-yloxy)-acetamide] | ≥ 80 | ≥ 80 | ≥ 80 | ≥ 80 | ≥ 80 | 87 to 89 | – | –
C#CC(C)(C)NC(=O)C(Oc1cc(C)c2ncc(C=C)cc2c1)SC (stereo not drawn) [Compound 36, N-(1,1-Dimethyl-prop-2-ynyl)-2-methylsulfanyl-2-(8-methyl-3-vinyl-quinolin-6-yloxy)-acetamide] | ≥ 80 | ≥ 80 | ≥ 80 | ≥ 80 | ≥ 80 | 115 to 117 | – | –
C=Cc1cnc2c(F)cc(OC(SC)C(=O)NC(C)(C)/C=N/OC)cc2c1 (stereo not drawn) [Compound 37] | ≥ 80 | ≥ 80 | – | – | ≥ 80 | 105 to 107 | ≥ 80 | ≥ 80
